# Experimental data: BindingDB's records for doi:10.1021/jm020424z (Merck Research Laboratories, 2002)
# pKi: −log10 of the molar value.
# Target: Carboxypeptidase A1 (Bos taurus) (UniProt P00730)
# Test: The compound was evaluated for the inhibition of Carboxypeptidase A
# Chain of Carboxypeptidase A1 (Bos taurus) (P00730 whole entry, looked up): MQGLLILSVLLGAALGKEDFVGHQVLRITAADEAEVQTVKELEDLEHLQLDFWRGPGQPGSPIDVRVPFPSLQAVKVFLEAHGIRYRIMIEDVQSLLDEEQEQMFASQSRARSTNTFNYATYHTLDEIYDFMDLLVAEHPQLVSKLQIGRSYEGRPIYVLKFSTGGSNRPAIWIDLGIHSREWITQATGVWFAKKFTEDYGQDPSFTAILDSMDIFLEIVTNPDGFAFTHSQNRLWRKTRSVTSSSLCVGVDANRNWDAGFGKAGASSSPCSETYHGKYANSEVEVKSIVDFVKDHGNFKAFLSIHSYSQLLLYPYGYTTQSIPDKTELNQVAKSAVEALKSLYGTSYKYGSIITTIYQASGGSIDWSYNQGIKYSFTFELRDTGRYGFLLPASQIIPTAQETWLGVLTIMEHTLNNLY
row,pKi,SMILES
1,6.35,O=C(O)C[C@@H](Cc1ccccc1)C(=O)O [2-benzylbutanedioic acid]
2,5.30,O=C(O)CCC(Cc1ccccc1)C(=O)O (configuration not stated) [2-Benzyl-pentanedioic acid]
